Key:
[1] = molecular target: Serine/threonine-protein kinase 32C (Homo sapiens) (UniProt Q86UX6); assay: Inhibition of YANK3 (unknown origin) assessed as residual activity at 100 nM by KINOMEscan analysis relative to control
[2] = molecular target: Casein kinase II subunit alpha (Homo sapiens) (UniProt P68400); assay: Inhibition of CSNK2A1 (unknown origin) assessed as residual activity at 100 nM by KINOMEscan analysis relative to control
[3] = molecular target: Misshapen-like kinase 1 (Homo sapiens) (UniProt Q8N4C8); assay: Inhibition of MINK (unknown origin) assessed as residual activity at 100 nM by KINOMEscan analysis relative to control
Chain of Misshapen-like kinase 1 (Homo sapiens) (Q8N4C8 whole entry, looked up): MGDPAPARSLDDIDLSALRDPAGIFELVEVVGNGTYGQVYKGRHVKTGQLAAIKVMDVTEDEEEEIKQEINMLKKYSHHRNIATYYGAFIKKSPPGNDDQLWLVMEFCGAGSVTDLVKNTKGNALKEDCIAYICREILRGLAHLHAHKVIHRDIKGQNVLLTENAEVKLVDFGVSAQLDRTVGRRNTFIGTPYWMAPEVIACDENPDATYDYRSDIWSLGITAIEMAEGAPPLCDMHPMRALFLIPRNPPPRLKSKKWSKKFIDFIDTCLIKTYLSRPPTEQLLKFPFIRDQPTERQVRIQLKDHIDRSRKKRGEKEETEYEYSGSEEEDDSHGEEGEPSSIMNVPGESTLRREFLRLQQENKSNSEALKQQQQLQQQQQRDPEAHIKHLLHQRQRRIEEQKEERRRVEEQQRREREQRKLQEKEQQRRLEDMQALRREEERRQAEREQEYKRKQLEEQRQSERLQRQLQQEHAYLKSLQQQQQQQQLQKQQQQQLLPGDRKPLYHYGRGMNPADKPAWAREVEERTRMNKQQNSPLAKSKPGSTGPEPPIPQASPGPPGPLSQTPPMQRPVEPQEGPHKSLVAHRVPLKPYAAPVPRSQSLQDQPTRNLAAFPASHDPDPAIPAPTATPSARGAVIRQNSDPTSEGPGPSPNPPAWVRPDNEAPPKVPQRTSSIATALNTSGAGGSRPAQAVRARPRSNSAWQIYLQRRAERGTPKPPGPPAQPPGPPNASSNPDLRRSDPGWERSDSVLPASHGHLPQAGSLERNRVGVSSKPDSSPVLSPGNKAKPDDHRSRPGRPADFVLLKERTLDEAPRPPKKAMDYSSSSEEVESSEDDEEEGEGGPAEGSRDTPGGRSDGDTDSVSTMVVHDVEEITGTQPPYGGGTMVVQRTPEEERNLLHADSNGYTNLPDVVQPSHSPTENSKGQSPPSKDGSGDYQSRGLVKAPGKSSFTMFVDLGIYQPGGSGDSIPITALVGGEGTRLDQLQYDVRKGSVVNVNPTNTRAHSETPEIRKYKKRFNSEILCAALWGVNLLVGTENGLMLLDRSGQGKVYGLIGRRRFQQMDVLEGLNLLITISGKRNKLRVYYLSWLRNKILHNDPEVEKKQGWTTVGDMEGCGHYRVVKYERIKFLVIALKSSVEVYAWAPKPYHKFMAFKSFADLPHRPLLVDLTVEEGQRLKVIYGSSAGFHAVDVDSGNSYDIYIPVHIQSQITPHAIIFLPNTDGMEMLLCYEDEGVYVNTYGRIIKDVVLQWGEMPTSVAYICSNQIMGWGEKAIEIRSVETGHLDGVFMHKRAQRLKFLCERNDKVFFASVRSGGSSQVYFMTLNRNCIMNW

[4] = test system: Serine/threonine-protein kinase B-raf (Homo sapiens), P15056 [V600E]; assay: Inhibition of BRAF V600E mutant (unknown origin) assessed as residual activity at 100 nM by KINOMEscan analysis relative to control
Chain of Serine/threonine-protein kinase B-raf (Homo sapiens), P15056 [V600E] (P15056 whole entry V600E): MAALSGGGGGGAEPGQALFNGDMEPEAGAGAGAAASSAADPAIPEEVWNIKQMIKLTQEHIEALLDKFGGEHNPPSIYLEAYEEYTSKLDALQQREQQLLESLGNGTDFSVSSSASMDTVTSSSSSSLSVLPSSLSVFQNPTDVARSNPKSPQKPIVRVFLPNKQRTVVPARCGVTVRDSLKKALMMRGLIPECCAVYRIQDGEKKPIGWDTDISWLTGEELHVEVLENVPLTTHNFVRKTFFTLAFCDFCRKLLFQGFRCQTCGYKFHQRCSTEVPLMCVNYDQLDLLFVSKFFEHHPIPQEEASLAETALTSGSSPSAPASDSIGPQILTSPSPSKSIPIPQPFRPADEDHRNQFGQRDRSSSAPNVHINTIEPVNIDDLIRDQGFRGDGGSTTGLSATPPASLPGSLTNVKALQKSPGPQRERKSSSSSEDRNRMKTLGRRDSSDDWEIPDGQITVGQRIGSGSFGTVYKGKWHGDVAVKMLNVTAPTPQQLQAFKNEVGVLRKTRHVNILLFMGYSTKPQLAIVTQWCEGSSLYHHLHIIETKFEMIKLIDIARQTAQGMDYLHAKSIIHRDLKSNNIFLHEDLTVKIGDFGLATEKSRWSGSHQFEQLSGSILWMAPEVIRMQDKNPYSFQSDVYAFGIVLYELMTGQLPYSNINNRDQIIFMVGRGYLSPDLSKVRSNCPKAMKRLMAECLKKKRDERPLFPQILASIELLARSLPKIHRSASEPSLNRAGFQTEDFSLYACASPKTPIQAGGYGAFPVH

[5] = molecular target: Serine/threonine-protein kinase SBK1 (Homo sapiens) (UniProt Q52WX2); assay: Inhibition of SBK1 (unknown origin) assessed as residual activity at 100 nM by KINOMEscan analysis relative to control
Chain of Serine/threonine-protein kinase SBK1 (Homo sapiens) (Q52WX2 whole entry, the tested form may be a part): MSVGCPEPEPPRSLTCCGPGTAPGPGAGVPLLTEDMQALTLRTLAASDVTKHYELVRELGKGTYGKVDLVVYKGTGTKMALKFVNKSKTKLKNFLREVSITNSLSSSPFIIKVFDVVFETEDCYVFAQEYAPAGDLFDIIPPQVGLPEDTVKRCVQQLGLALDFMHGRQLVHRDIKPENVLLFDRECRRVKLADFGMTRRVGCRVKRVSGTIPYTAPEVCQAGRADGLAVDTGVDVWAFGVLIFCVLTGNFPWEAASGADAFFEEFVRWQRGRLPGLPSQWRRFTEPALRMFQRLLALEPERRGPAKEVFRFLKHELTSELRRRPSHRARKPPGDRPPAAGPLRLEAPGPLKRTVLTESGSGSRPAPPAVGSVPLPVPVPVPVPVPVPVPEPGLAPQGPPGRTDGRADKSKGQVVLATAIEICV

[6] = molecular target: Non-receptor tyrosine-protein kinase TYK2 (Homo sapiens) (UniProt P29597); assay: Inhibition of TYK2 JH2 pseudokinase domain (unknown origin) assessed as residual activity at 100 nM by KINOMEscan analysis relative to control
Chain of Non-receptor tyrosine-protein kinase TYK2 (Homo sapiens) (P29597 whole entry, the tested form may be a part): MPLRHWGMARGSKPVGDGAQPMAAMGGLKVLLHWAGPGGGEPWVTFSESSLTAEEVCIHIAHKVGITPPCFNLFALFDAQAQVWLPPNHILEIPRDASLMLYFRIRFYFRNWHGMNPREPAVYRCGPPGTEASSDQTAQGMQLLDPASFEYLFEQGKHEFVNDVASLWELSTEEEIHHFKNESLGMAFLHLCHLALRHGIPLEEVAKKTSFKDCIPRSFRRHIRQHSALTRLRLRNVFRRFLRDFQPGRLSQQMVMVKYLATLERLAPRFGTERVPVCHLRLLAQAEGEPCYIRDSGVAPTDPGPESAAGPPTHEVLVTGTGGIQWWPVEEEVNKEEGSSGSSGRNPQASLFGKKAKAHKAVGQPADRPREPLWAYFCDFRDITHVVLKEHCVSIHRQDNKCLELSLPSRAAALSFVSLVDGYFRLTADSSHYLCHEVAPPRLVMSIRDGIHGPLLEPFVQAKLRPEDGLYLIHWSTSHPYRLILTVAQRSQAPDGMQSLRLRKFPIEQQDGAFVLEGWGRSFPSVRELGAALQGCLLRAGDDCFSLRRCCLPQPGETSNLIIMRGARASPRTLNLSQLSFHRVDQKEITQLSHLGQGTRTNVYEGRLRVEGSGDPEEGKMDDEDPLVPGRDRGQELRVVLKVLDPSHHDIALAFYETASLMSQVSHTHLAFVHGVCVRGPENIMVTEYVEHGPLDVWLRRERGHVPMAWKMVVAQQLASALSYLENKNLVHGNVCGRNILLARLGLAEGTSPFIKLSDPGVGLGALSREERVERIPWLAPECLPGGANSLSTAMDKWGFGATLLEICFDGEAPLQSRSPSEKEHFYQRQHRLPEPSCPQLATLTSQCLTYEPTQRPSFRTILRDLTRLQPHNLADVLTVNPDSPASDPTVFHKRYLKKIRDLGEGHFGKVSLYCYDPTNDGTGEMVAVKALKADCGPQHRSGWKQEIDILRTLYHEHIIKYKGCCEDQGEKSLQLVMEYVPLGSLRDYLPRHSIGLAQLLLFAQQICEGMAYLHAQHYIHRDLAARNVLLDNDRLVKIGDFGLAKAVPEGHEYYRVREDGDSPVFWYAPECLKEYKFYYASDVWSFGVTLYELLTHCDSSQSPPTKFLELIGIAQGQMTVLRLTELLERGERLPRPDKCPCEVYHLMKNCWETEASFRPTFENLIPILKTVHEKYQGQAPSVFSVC

[7] = molecular target: Serine/threonine-protein kinase MRCK beta (Homo sapiens) (UniProt Q9Y5S2); assay: Inhibition of MRCKB (unknown origin) assessed as residual activity at 100 nM by KINOMEscan analysis relative to control
[8] = molecular target: Microtubule-associated serine/threonine-protein kinase 1 (Homo sapiens) (UniProt Q9Y2H9); assay: Inhibition of MAST1 (unknown origin) assessed as residual activity at 100 nM by KINOMEscan analysis relative to control
[9] = molecular target: T1, Ephrin type-B receptor 3 (Homo sapiens) (UniProt P54753); assay: Inhibition of EPHB3 (unknown origin) assessed as residual activity at 100 nM by KINOMEscan analysis relative to control
T1 sequence (whole entry): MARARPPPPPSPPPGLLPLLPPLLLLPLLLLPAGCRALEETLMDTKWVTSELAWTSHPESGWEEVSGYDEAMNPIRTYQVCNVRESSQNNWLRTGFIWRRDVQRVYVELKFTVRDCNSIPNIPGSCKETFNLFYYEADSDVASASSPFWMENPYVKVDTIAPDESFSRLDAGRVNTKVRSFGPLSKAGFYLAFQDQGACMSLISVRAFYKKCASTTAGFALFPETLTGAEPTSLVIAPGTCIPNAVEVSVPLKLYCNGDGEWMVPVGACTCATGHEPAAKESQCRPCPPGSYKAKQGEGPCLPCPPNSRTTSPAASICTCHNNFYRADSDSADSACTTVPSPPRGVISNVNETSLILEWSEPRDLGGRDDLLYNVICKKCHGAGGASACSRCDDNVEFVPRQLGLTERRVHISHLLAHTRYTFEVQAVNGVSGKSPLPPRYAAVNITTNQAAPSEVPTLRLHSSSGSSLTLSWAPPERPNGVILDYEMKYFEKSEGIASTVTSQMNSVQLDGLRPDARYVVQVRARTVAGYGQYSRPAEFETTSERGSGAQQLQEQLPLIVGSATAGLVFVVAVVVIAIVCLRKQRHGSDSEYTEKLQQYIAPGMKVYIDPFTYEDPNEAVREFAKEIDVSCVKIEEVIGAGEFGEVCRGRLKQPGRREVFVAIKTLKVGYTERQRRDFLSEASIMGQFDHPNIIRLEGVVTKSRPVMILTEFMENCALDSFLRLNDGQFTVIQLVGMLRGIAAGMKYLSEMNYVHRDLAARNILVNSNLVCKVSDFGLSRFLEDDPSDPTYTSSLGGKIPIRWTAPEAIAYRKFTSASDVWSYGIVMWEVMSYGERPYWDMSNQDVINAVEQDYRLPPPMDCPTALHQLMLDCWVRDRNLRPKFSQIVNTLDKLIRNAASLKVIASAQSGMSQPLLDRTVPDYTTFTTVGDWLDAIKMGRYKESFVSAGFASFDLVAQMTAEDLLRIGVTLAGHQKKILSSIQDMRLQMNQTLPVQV

[10] = molecular target: Mitogen-activated protein kinase 3 (Homo sapiens) (UniProt P27361); assay: Inhibition of ERK1 (unknown origin) assessed as residual activity at 100 nM by KINOMEscan analysis relative to control
Chain of Mitogen-activated protein kinase 3 (Homo sapiens) (P27361 whole entry): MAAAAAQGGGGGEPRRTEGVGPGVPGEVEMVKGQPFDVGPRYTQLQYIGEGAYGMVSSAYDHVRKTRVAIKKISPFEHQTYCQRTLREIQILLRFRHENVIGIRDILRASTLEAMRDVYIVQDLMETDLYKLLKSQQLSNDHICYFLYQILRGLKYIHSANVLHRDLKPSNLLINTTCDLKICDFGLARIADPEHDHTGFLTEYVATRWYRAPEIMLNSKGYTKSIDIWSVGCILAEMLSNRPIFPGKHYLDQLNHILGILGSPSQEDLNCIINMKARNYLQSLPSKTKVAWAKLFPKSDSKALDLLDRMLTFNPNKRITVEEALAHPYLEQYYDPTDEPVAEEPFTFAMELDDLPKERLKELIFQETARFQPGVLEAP

[11] = molecular target: T2, Serine/threonine-protein kinase 17B (Homo sapiens) (UniProt O94768); assay: Inhibition of DRAK2 (unknown origin) assessed as residual activity at 100 nM by KINOMEscan analysis relative to control
T2 sequence (whole entry): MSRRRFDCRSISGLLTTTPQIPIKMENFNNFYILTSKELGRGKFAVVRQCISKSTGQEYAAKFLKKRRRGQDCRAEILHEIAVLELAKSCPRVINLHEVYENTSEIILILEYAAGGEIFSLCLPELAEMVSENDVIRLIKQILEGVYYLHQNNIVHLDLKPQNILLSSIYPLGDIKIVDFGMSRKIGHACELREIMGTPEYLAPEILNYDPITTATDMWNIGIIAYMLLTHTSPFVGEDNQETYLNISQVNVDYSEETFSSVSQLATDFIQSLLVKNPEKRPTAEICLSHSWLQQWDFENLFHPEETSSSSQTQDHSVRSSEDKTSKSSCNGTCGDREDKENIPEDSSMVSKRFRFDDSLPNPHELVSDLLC

Chain of Casein kinase II subunit alpha (Homo sapiens) (P68400 whole entry, looked up): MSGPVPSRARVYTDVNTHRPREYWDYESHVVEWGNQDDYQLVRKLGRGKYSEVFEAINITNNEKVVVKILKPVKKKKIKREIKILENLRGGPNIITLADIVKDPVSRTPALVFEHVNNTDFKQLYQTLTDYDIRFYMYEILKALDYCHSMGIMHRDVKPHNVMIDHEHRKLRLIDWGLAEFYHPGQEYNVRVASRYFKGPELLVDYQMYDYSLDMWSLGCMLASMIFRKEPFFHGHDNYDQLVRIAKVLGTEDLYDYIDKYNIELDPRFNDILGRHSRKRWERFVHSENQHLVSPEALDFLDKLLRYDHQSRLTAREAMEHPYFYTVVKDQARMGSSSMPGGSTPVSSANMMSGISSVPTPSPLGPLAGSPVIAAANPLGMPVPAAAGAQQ
Chain of Serine/threonine-protein kinase 32C (Homo sapiens) (Q86UX6 whole entry): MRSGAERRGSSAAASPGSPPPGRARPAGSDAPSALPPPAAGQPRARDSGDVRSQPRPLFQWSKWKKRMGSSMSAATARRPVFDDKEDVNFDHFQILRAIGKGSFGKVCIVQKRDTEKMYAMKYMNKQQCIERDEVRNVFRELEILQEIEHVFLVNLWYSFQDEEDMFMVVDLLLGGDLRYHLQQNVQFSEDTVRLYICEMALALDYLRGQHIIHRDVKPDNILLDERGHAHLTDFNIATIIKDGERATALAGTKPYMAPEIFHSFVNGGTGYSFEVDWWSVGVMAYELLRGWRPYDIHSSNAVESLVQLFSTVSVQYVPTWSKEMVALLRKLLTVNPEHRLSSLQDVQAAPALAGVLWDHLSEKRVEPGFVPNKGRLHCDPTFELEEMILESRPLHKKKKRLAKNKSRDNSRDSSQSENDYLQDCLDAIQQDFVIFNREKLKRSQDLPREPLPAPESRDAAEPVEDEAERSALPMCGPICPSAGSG

Structure (SMILES): COc1cc2ncnc(N[C@H](C)c3cccc4ccccc34)c2cc1OC
- Activity [1]: 100%
- Activity [2]: 96%
- Activity [3]: 77%
- Activity [4]: 92%
- Activity [5]: 81%
- Activity [6]: 100%
- Activity [7]: 82%
- Activity [8]: 71%
- Activity [9]: 71%
- Activity [10]: 91%
- Activity [11]: 100%

From ChEMBL document CHEMBL5678818, “Discovery of potent SOS1 inhibitors that block RAS activation via disruption of the RAS-SOS1 interaction” (Proc Natl Acad Sci U S A, 2019)
